Results on two molecules are retold here after patent US8513381B2, “Melanocortin analogs with antimicrobial activity” (Fondazione IRCCS Ca' Granda-Ospedale Maggiore Policlinico, priority 2009, dated 2013).

One experiment concerns C. glabrata. In kind it is cell-based, Candida glabrata. On the procedure: Two Candida albicans isolates were purchased from the ATCC (No. 24433 and 76615). The other yeast isolates were obtained from the collection of Fondazione Ospedale Maggiore Policlinico, Mangiagalli e Regina Elena, Milano. The collection included C. albicans (7 isolates), C. glabrata (3 isolates), and C. krusei (3 isolates). Antifungal susceptibility testing was performed using the broth microdilution method according to the NCCLS M27-A guidelines (National Committee for Clinical Laboratory Standards. 1997, Reference method for broth dilution antifungal susceptibility testing of yeasts and approved standard NCCLS document M27-A. National Committee for Clinical Laboratory Standards, Wayne, Pa.). The organisms were removed from frozen glycerol stock (10% sterile glycerol suspensions stored at −70° C.), subcultured onto Sabouraud's dextrose plates, and incubated at 35° C. After 48 h of incubation, the plates were inspected for purity. To prepare stationary growth phase yeast, a colony was taken from the agar plate and transferred into 5 mL Sabouraud-dextrose broth and incubated for 48 h at 35° C. Cells were centrifuged at 1,000×g for 10 min and the pellet was washed twice with distilled water. Cells were counted and suspended in RPMI 1640 medium buffered to pH 7.0 with 0.165 mol l^−1 morpholinepropanesulphonic acid (MOPS) buffer (Sigma) to obtain the two times test inoculum (1×10^3 to 5×10^3 CFU/mL). Each well of 96 U-shaped well-plates received 100 μl of each antifungal peptides in concentrations from 10^−4 to 7.8×10^−7 M and 100 μl of the two-times inoculum to a final yeast concentration of 0.5×10−[…] cells ml^−1
The MIC90, i.e. the minimum inhibitory concentrations endpoint determined as 90% reduction in turbidity measured using a spectrophotometer (Titertek multiscan at 690 nm wave length).

Experiment [1] has as its system Staphylococcus aureus ATCC 29213. In kind it is cell-based. On the procedure:
(§1) The bacterial strains Pseudomonas aeruginosa ATCC 27853 and Staphylococcus aureus ATCC 29213 were grown in 2% Bacto Peptone water (Difco 1807-17-4) until growth was exponential. A standard microdilution technique with an inoculum of 2×10^6 CFU/mL was used. The minimal inhibitory concentration (MIC) of the peptides was determined in 1% Bacto Peptone water after incubation overnight at 37° C.

The test system of experiment [2] is Pseudomonas aeruginosa ATCC 27853. The experiment is classed as cell-based. As to the method: as §1

Structures are written as SMILES. ≈ marks a conversion by molar mass, not a printed value. Non-standard residues stand in square brackets, D forms with d. Residues, ends and D or L forms follow the SMILES beside them. d2Nal = N[C@H](Cc1ccc2ccccc2c1)C(=O)O; Cha = N[C@@H](CC1CCCCC1)C(=O)O; Aic = NC1(C(=O)O)Cc2ccccc2C1

`CC(C)[C@H](NC(=O)[C@H](Cc1ccccc1)NC(=O)[C@H](CCCCN)NC(=O)C1(NC(=O)[C@H](Cc2c[nH]c3ccccc23)NC(=O)[C@H](CCCNC(=N)N)NC(=O)[C@@H](Cc2ccc3ccccc3c2)NC(=O)[C@@H](N)Cc2c[nH]cn2)Cc2ccccc2C1)C(N)=O` [MSH0708, H-His-D(2)-Nal-Arg-Trp-Aic-Lys-Phe-Val-NH2] (H-H[d2Nal]RW[Aic]KFV-NH2): the “MIC 90 at 48 hours” value against C. glabrata amounted to 123 µg/mL (≈ 100 µM). Also, the “MIC (minimal inhibitory concentration)” value in experiment [1] was 31 µg/mL (≈ 25.3 µM); in experiment [2], 61 µg/mL (≈ 49.7 µM).
On the same counts, the results for `CC(C)[C@H](NC(=O)[C@H](Cc1ccccc1)NC(=O)[C@H](CCCCN)NC(=O)[C@H](CC1CCCCC1)NC(=O)[C@H](Cc1c[nH]c2ccccc12)NC(=O)[C@H](CCCNC(=N)N)NC(=O)[C@@H](Cc1ccc2ccccc2c1)NC(=O)[C@@H](N)Cc1c[nH]cn1)C(N)=O` [MSH0704, H-His-D(2)-Nal-Arg-Trp-Cha-Lys-Phe-Val-NH2] (H-H[d2Nal]RW[Cha]KFV-NH2) are 122 µg/mL (≈ 99.9 µM), 31 µg/mL (≈ 25.4 µM) and 61 µg/mL (≈ 49.9 µM).
